Experiments:
[1] = tested on: Tobacco Budworm (Heliothis virescens); assay: Tobacco budworm microtiter diet test (B.7); assay type: in vivo; details: 120 h, egg and larval mortality, sprayed insect diet, 5 days, read-out: mortality in comparison with untreated controls
Experimental: B.7 Tobacco Budworm (Heliothis virescens)
For evaluating control of tobacco budworm (Heliothis virescens) the test unit consisted of 96-well-microtiter plates containing an insect diet and 15-25 H. virescens eggs. The compounds were formulated using a solution containing 75% v/v water and 25% v/v DMSO. Different concentrations of formulated compounds were sprayed onto the insect diet at 10 μl, using a custom built micro atomizer, at two replications.
After application, microtiter plates were incubated at about 28±1° C. and about 80±5% relative humidity for 5 days. Egg and larval mortality was then visually assessed.

[2] = tested on: Boll Weevil (Anthonomus grandis); assay: Boll weevil microtiter diet test (B.8); assay type: in vivo; details: 120 h, egg and larval mortality, sprayed insect diet, 5 days, read-out: mortality in comparison with untreated controls
Experimental: B.8 Boll Weevil (Anthonomus grandis)
For evaluating control of boll weevil (Anthonomus grandis) the test unit consisted of 96-well-microtiter plates containing an insect diet and 5-10 A. grandis eggs.
The compounds were formulated using a solution containing 75% v/v water and 25% v/v DMSO. Different concentrations of formulated compounds were sprayed onto the insect diet at 5 μl, using a custom built micro atomizer, at two replications.
After application, microtiter plates were incubated at about 25±1° C. and about 75±5% relative humidity for 5 days. Egg and larval mortality was then visually assessed.

[3] = tested on: Green Peach Aphid (Myzus persicae); assay: Green peach aphid artificial diet systemic test (B.2); assay type: in vivo; details: 72 h, adult aphids on treated artificial diet, 3 days, read-out: mortality in comparison with untreated controls
Source text: B.2 Green Peach Aphid (Myzus persicae)
For evaluating control of green peach aphid (Myzus persicae) through systemic means the test unit consisted of 96-well-microtiter plates containing liquid artificial diet under an artificial membrane.
The compounds were formulated using a solution containing 75% v/v water and 25% v/v DMSO. Different concentrations of formulated compounds were pipetted into the aphid diet, using a custom built pipetter, at two replications.
After application, 5-8 adult aphids were placed on the artificial membrane inside the microtiter plate wells. The aphids were then allowed to suck on the treated aphid diet and incubated at about 23±1° C. and about 50±5% relative humidity for 3 days. Aphid mortality and fecundity was then visually assessed.

[4] = tested on: Vetch Aphid (Megoura viciae); assay: Vetch aphid broad bean leaf disk test (B.6); assay type: in vivo; details: foliar, 120 h, adult aphids on sprayed broad bean leaf disks, 5 days, read-out: mortality in comparison with untreated controls
Experimental: B.6 Vetch Aphid (Megoura viciae)
For evaluating control of vetch aphid (Megoura viciae) through contact or systemic means the test unit consisted of 24-well-microtiter plates containing broad bean leaf disks.
The compounds were formulated using a solution containing 75% v/v water and 25% v/v DMSO. Different concentrations of formulated compounds were sprayed onto the leaf disks at 2.5 μl, using a custom built micro atomizer, at two replications. After application, the leaf disks were air-dried and 5-8 adult aphids placed on the leaf disks inside the microtiter plate wells. The aphids were then allowed to suck on the treated leaf disks and incubated at about 23±1° C. and about 50±5% relative humidity for 5 days. Aphid mortality and fecundity was then visually assessed.

[5] = tested on: Mediterranean Fruitfly (Ceratitis capitata); assay: Mediterranean fruitfly microtiter diet test (B.3); details: 120 h, read-out: mortality in comparison with untreated controls
[6] = tested on: Diamond Back Moth (Plutella xylostella); assay: Diamond back moth leaf-dip test (B.1); assay type: in vivo; details: cabbage leaves dipped, 3rd instar larvae, 72 hours after treatment, read-out: mortality in comparison with untreated controls
Experimental: B.1 Diamond Back Moth (Plutella xylostella)
The active compound was dissolved at the desired concentration in a mixture of 1:1 (vol:vol) distilled water:aceteone. Surfactant (Kinetic HV) was added at a rate of 0.01% (vol/vol). The test solution was prepared at the day of use.
Leaves of cabbage were dipped in test solution and air-dried. Treated leaves were placed in petri dishes lined with moist filter paper and inoculated with ten 3rd instar larvae. Mortality was recorded 72 hours after treatment. Feeding damages were also recorded using a scale of 0-100%.

[7] = tested on: Southern Armyworm (Spodoptera eridania); assay: Southern armyworm lima bean foliar spray test (B.5); assay type: in vivo; details: 96 h, larvae on sprayed lima bean plants, 4 days after treatment, read-out: mortality in comparison with untreated controls
Experimental: B.5 Southern Armyworm (Spodoptera eridania)
The active compounds were formulated by a Tecan liquid handler in 100% cyclohexanone as a 10,000 ppm solution supplied in tubes. The 10,000 ppm solution was serially diluted in 100% cyclohexanone to make interim solutions. These served as stock solutions for which final dilutions were made by the Tecan in 50% acetone:50% water (v/v) into 5 or 10 ml glass vials. A nonionic surfactant (Kinetic®) was included in the solution at a volume of 0.01% (v/v). The vials were then inserted into an automated electrostatic sprayer equipped with an atomizing nozzle for application to plants/insects.
Lima bean plants (variety Sieva) were grown 2 plants to a pot and selected for treatment at the 1st true leaf stage. Test solutions were sprayed onto the foliage by an automated electrostatic plant sprayer equipped with an atomizing spray nozzle. The plants were dried in the sprayer fume hood and then removed from the sprayer. Each pot was placed into perforated plastic bags with a zip closure. About 10 to 11 armyworm larvae were placed into the bag and the bags zipped closed. […] Mortality and reduced feeding were assessed 4 days after treatment, compared to untreated control plants.

O=C(O)c1sc(C2=NSC(c3cc(Cl)c(F)c(Cl)c3)(C(F)(F)F)C2)cc1C(F)(F)F (stereo not shown) [Compound 1-9, 5-[5-(3,5-Dichloro-4-fluoro-phenyl)-5-(trifluoromethyl)-4H-isothiazol-3-yl]-3-(trifluoromethyl)-thiophene-2-carboxylic acid]
≥ 75%: mortality at 2500 ppm [1] | mortality at 2500 ppm [2]

O=C(NCc1ncccn1)c1sc(C2=NSC(c3cc(Cl)c(F)c(Cl)c3)(C(F)(F)F)C2)cc1C(F)(F)F (stereo not shown) [Compound 1-12, 5-[5-(3,5-Dichloro-4-fluoro-phenyl)-5-(trifluoromethyl)-4H-isothiazol-3-yl]-N-(pyrimidin-2-ylmethyl)-3-(trifluoromethyl)thiophene-2-carboxamide]
≥ 75%: mortality at 2500 ppm [3] | mortality at 2500 ppm [4] | mortality at 2500 ppm [1] | mortality at 2500 ppm [2] | mortality at 2500 ppm [5]

Cc1cc(C2=NSC(c3cc(Cl)c(Cl)c(Cl)c3)(C(F)(F)F)C2)sc1C(=O)NCC(F)(F)F (stereo not shown) [Compound 1-7, 3-Methyl-5-[5-(3,4,5-trichlorophenyl)-5-(trifluoromethyl)-4H-isothiazol-3-yl]-N-(2,2,2-trifluoroethyl)thiophene-2-carboxamide]
≥ 75%: mortality at 500 ppm [6] | mortality at 2500 ppm [4] | mortality at 2500 ppm [1] | mortality at 2500 ppm [2] | mortality at 2500 ppm [5]

Cc1cc(C2=NSC(c3cc(Cl)c(Cl)c(Cl)c3)(C(F)(F)F)C2)sc1C(=O)OC(C)(C)C (stereo not shown) [Compound 1-1, tert-Butyl 3-methyl-5-[5-(3,4,5-trichlorophenyl)-5-(trifluoromethyl)-4H-isothiazol-3-yl]thiophene-2-carboxylate]
≥ 75%: mortality at 300 ppm [7]

— patent publication US10533002B2, “Thiophene- or furan-substituted isothiazoline compounds as pesticides” (BOEHRINGER INGELHEIM ANIMAL HEATLH USA INC., priority 2013, dated 2020)
